We go through seven molecules from ChEMBL document CHEMBL1201862, “PubChem BioAssay data set” (2004).

Common to all, as to assay: inhibition of tumour cell growth, NCI panel, 48 h
The test system of test [1] is EKVX.
For test [2], the system named is HCT-15.
The subject of test [3] is HL-60.
The subject of test [4] is Hs-578T.
Test [5] deals with IGROV-1.
In test [6] the test system is K562.
The test system of test [7] is KM12.
Test [8] deals with M14.
The subject of test [9] is MOLT-4.
Test [10] relates to NCI-H23.
In test [11] the test system is OVCAR-3.
In test [12] the test system is OVCAR-4.
Test [13] has as its system SF-268.
Test [14] has as its system SK-MEL-28.
Test [15] has as its system SK-MEL-2.
In test [16] the test system is SK-OV-3.
Test [17] deals with SW-620.
The subject of test [18] is T47D.
Test [19] deals with U-251.
For test [20], the system named is UACC-257.

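The compound was tested at five concentrations on cells cultured in 96-well plates, with a 48-hour exposure period. Here, GI50 denotes the concentration required for 50% inhibition of growth.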 Calls of active or inactive are those of the source. Rule as the data show it: active = GI50 up to about 1.1 µM and inactive = higher.

Take `NC(=O)c1nc[nH]c1/N=N/SCC(N)C(=O)O` (stereo not drawn): the GI50 in [1] was > 75.7 µM (inactive); in test [2] it was 43.2 µM; in test [3] it was 1.26 µM (inactive); in test [4] it was > 56.9 µM (inactive); in [5], 12.8 µM (inactive); in [6], 2.01 µM (inactive). Also, the GI50 in test [7] is 14.2 µM (inactive); in [8], 2.81 µM (inactive); in test [9] it was 0.962 µM (active); in test [10], > 78.9 µM (inactive); in [11], 19.1 µM (inactive); in [12], 11.3 µM (inactive). Besides, the GI50 in [13] was 10.7 µM (inactive); in test [14] it was > 100 µM (inactive); in test [15], 3.33 µM (inactive); in [16] it was 2.88 µM (inactive); in test [17], 16.4 µM (inactive); in test [18], > 60.5 µM (inactive). Also, the GI50 in test [19] was > 80.7 µM (inactive); in test [20] it was 54.8 µM (inactive).

Consider `CC[C@@]1(O)C(=O)OCc2c1cc1n(c2=O)Cc2c-1nc1ccccc1c2/C=N\NC(=O)C(N)Cc1c[nH]c2ccccc12` (stereo partly drawn), for which the GI50 in [1] is 5.78 µM (inactive); in [3] it was 0.0638 µM (active); in test [4] it was 27.9 µM (inactive); in [5] it was 2.86 µM (inactive); in [6], 0.239 µM (active); in test [7], 2.84 µM (inactive). Also, the GI50 in test [8] was 0.332 µM (active); in [9], < 0.01 µM (active); in test [10], 0.124 µM (active); in [11], 5.14 µM (inactive); in test [12], 3.08 µM (inactive); in test [13] it was 0.0354 µM (active). The GI50 in test [14] was 1.26 µM (inactive); in test [15] it was 5.93 µM (inactive); in test [16], 0.49 µM (active); in test [17], 0.61 µM (active); in [18], 0.0743 µM (active); in [19], 0.0502 µM (active). Further, in test [20], the GI50 was 1.96 µM (inactive).

In the case of `O=C1/C(=C/c2ccccc2)CN(C(=O)CCN2CCCC2)C/C1=C\c1ccccc1`, the GI50 was 2.49 µM (inactive) in test [1]; 1.73 µM in [2]; 0.298 µM (active) in [3]; 0.282 µM (active) in test [4]; 2.67 µM (inactive) in test [5]; 0.287 µM (active) in test [6]. Further, the GI50 was 0.607 µM (active) in test [7]; 1.74 µM (inactive) in test [8]; 0.356 µM (active) in test [9]; 1.8 µM (inactive) in test [10]; 2.08 µM (inactive) in test [11]; 1.57 µM (inactive) in test [12]. Further, the GI50 in test [13] was 1.72 µM (inactive); in test [14] it was 1.62 µM (inactive); in test [15] it was 2.77 µM (inactive); in test [16], 8.26 µM (inactive); in test [17], 0.23 µM (active); in test [18], 1.76 µM (inactive). For the same molecule, the values for the GI50 in test [19] and in test [20] were 0.794 µM (active) and 2.45 µM (inactive), respectively.

With `COc1ccc2c(c1OC)C(=O)N1C2=Cc2c(cc3c(c2OC)OCO3)CC1N(C)C` (stereo not drawn), the GI50 in test [1] was 65.8 µM (inactive); in test [2] it was 36.5 µM; in test [3] it was 24.9 µM (inactive); in test [4] it was 34.8 µM (inactive); in test [5], > 100 µM (inactive); in [6], 30.3 µM (inactive). The GI50 was 34 µM (inactive) in test [7]; 66.7 µM (inactive) in test [8]; 34.5 µM (inactive) in [9]; 34 µM (inactive) in [10]; 40.6 µM (inactive) in test [11]; 30.1 µM (inactive) in test [12]. In addition, the GI50 in test [13] is 63.5 µM (inactive); in [14], 46.1 µM (inactive); in test [15], 36.2 µM (inactive); in [16], 87.7 µM (inactive); in test [17], 62.1 µM (inactive); in [18], 24.4 µM (inactive). The GI50 is 49.4 µM (inactive) in [19] and 88.3 µM (inactive) in test [20].

`O=[N+]([O-])c1ccc(C(=S)Nc2ccccc2)o1`: the GI50 in test [1] was 5.11 µM (inactive); in [2], 2.07 µM; in test [3], 2.1 µM (inactive); in test [4], 3.71 µM (inactive); in test [5] it was 6.1 µM (inactive); in [6], 0.938 µM (active). Moreover, the GI50 in test [7] is 2.38 µM (inactive); in test [8], 4.94 µM (inactive); in [9], 1.26 µM (inactive); in test [10], 3.35 µM (inactive); in test [11], 2.19 µM (inactive); in [12], 2.43 µM (inactive). Besides, the GI50 in test [13] is 3.36 µM (inactive); in test [14], 4.27 µM (inactive); in test [15] it was 2.48 µM (inactive); in test [16], 11.4 µM (inactive); in test [17], 1.27 µM (inactive); in test [18], 4.33 µM (inactive). Besides, the figures for the GI50 in test [19] and in test [20] were 1.48 µM (inactive) and 4.3 µM (inactive), respectively.

`CC(C)(C)c1cc(C(=O)/C=C/c2c(Cl)cccc2Cl)cc(C(C)(C)C)c1O`: the GI50 in test [1] is 21.9 µM (inactive); in test [2], 12.4 µM; in test [3], 3.7 µM (inactive); in [4] it was 25.2 µM (inactive); in [5], 23.4 µM (inactive); in [6] it was 18.9 µM (inactive). The GI50 in [7] is 13.1 µM (inactive); in test [8], 20.3 µM (inactive); in [9], 6.85 µM (inactive); in test [10], 16.1 µM (inactive); in [11], 3.79 µM (inactive); in test [12] it was 28.7 µM (inactive). The GI50 was 18.8 µM (inactive) in test [13]; 19.4 µM (inactive) in test [14]; 11.9 µM (inactive) in [15]; 53.5 µM (inactive) in [16]; 13.3 µM (inactive) in test [17]; 4.33 µM (inactive) in test [18]. The GI50 is 11.9 µM (inactive) in test [19] and 5.6 µM (inactive) in test [20].

`O=C(CCc1ccc(O)cc1)NCCc1cccc(OCc2ccccc2)c1`: the GI50 in test [1] was 31.5 µM (inactive); in test [2], 29 µM; in [3], 16.6 µM (inactive); in test [4] it was 35.3 µM (inactive); in test [5] it was 28.5 µM (inactive); in test [6], 17.9 µM (inactive). Besides, the GI50 in test [7] was 25.4 µM (inactive); in test [8] it was 17.8 µM (inactive); in [9], 14 µM (inactive); in test [10] it was 24.4 µM (inactive); in test [11] it was 17.2 µM (inactive); in test [12], 31.6 µM (inactive). Besides, the GI50 in [13] was 26.5 µM (inactive); in [14], 22.7 µM (inactive); in test [15], 17.3 µM (inactive); in [16], 27.7 µM (inactive); in [18] it was 21.7 µM (inactive); in [19], 22.7 µM (inactive). For the same molecule, the GI50 in test [20] is 17.6 µM (inactive).
